Results reported in patent US8722849B2, “Polypeptides” (Novo Nordisk A/S, priority 2011, dated 2014).
pEC50: −log10 of the molar value. In brackets after ≈: the same amount, converted by molar mass. Where two headings read alike, the source gives them in different places. Starred links: 1 amine or outer side, 2 acyl side, 3 side chain; linkers in the order of their positions; H or OH if unused. Positions of bridges follow the written chain, without caps; N, C: chain ends. Residues, ends and D or L forms follow the SMILES beside them. *: point of attachment. C20 diacid = O=C(O)CCCCCCCCCCCCCCCCCCC(=O)*; γGlu = O=C(O)[C@H](CCC(=O)[*:2])N[*:1]

How the values were obtained:
[1] = target: T1, rat amylin 3(a) receptor (rat calcitonin(a) receptor + rat RAMP3) (Rattus norvegicus, UniProt P32214+Q9JJ73); assay: Assay (II)b functional cAMP FlashPlate assay, rat amylin receptor; assay type: cell-based; conditions: Table 11
T1 construct: expressed in transfected cells; host or cells: BHK tk'ts 13
T1 sequence (P32214 25-479 isoform P32214-2 limits assumed): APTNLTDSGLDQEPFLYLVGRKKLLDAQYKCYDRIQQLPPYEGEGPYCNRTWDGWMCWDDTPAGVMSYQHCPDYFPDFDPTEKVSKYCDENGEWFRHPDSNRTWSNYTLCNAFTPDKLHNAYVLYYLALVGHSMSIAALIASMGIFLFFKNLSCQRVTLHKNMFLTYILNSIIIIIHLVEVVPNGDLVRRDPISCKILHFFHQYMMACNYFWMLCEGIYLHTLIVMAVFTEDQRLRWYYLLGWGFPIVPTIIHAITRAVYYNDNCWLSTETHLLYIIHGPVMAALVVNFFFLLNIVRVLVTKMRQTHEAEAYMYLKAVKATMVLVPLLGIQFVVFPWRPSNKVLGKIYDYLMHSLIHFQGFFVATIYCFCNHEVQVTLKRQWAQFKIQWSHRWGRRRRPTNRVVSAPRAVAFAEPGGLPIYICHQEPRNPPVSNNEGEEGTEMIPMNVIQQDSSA
T1 sequence (Q9JJ73 23-147 partner): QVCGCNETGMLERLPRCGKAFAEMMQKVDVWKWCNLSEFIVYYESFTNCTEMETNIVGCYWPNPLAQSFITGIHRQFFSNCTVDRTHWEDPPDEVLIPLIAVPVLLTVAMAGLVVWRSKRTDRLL
Outline: (§1)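 BHK tk'ts 13 cells transiently transfected with rat calcitonin(a) receptor, alone or with rat RAMP3 (amylin 3(a)), were stimulated 24 hours later with sample for 30 min in buffer containing IBMX. cAMP measured by competitive radioactive FlashPlate assay, scintillation read after 3 h detection incubation.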

[2] = target: T2, human calcitonin receptor (Homo sapiens, UniProt P30988); assay: Assay (II)a functional CRE-luciferase assay, human calcitonin receptor; assay type: cell-based; conditions: Table 7; human calcitonin (CTa) receptor
T2 construct: expressed in transfected cells; host or cells: BHK570
T2 sequence (P30988 25-474): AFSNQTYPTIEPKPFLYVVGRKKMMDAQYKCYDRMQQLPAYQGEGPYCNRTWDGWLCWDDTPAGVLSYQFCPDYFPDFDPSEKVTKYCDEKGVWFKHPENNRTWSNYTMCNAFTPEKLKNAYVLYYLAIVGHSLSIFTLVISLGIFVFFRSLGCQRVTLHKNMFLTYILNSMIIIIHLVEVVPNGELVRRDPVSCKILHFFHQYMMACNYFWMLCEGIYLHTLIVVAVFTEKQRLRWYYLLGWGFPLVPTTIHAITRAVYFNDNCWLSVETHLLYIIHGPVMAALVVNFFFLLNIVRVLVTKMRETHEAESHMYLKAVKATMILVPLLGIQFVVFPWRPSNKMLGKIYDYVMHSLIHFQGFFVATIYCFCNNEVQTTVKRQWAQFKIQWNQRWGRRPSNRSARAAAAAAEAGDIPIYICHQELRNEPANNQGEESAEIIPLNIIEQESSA

[3] = target: T3, human amylin receptor (amylin 3(a) receptor: human calcitonin receptor + RAMP-3) (Homo sapiens, UniProt O60896+P30988); assay: Assay (II)a functional CRE-luciferase assay, human amylin receptor; assay type: cell-based; conditions: Table 2; BHK amylin 3(a)-receptor/CRE-luc cells
T3 construct: expressed in transfected cells; host or cells: BHK570
T3 sequence (P30988 25-474): T2 sequence (P30988 25-474)
T3 sequence (O60896 24-148 partner): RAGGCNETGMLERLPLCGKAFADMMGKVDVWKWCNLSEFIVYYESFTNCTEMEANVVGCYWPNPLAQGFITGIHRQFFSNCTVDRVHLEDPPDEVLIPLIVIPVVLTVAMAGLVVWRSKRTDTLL

[4] = target: T4, rat calcitonin (a) receptor (Rattus norvegicus, UniProt P32214); assay: Assay (II)b functional cAMP FlashPlate assay, rat calcitonin receptor; assay type: cell-based; conditions: Table 11; read-out: CTa receptor rat EC50
T4 construct: expressed in transfected cells; host or cells: BHK tk'ts 13
T4 sequence (P32214 25-479 isoform P32214-2 limits assumed): T1 sequence (P32214 25-479 isoform P32214-2 limits assumed)
Outline: as §1

[5] = Assay (IV) determination of solubility; assay type: physicochemical
Outline: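 Polypeptide in water (~500 nmol/ml stock) was mixed 1:1 with 100 mM buffers from pH 3.0 to 8.0 (glycylglycine pH 3.0–5.0; bistrispropane pH 6.0–8.0). After 18 hours at room temperature, samples were centrifuged and the polypeptide remaining in solution was quantified by HPLC.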

[6] = bistrispropane buffer, pH 6, pH 6.0, read-out: Solubility pH 6.0
[7] = bistrispropane buffer, pH 6.5, pH 6.5, read-out: Solubility pH 6.5
[8] = bistrispropane buffer, pH 7, pH 7.0, 18 hours at room temperature, Table 3, read-out: Solubility pH 7.0
[9] = bistrispropane buffer, pH 7, pH 7.0, read-out: Solubility pH 7.0
[10] = bistrispropane buffer, pH 7.5, pH 7.5, read-out: Solubility pH 7.5
[11] = bistrispropane buffer, pH 8, pH 8.0, read-out: Solubility pH 8.0
[12] = glycylglycine buffer, pH 3, pH 3.0, read-out: Solubility pH 3.0
[13] = glycylglycine buffer, pH 4, pH 4.0, 18 hours at room temperature, Table 2, read-out: Solubility pH 4.0
[14] = glycylglycine buffer, pH 4, pH 4.0, read-out: Solubility pH 4.0
[15] = glycylglycine buffer, pH 5, pH 5.0, read-out: Solubility pH 5.0

Row | pEC50 [1] | pEC50 [2] | pEC50 [3] | pEC50 [4] | solubility at 18 h [5, 6] | solubility at 18 h [5, 7] | solubility at 18 h [5, 8] | solubility at 18 h [5, 9] | solubility at 18 h [5, 10] | solubility at 18 h [5, 11] | solubility at 18 h [5, 12] | solubility at 18 h [5, 13] | solubility at 18 h [5, 14] | solubility at 18 h [5, 15] | SMILES
1 | 9.32 | 9.67 | 9.89 | 8.86 | > 200 µM | > 200 µM | > 200 µM | > 200 µM | > 200 µM | > 200 µM | > 200 µM | > 200 µM | > 200 µM | > 200 µM | CC[C@H](C)[C@H](NC(=O)[C@@H]1CCCN1C(=O)CNC(=O)[C@H](Cc1ccccc1)NC(=O)[C@H](CC(N)=O)NC(=O)[C@H](CC(N)=O)NC(=O)[C@H](CO)NC(=O)[C@H](CO)NC(=O)[C@H](Cc1c[nH]cn1)NC(=O)[C@H](Cc1c[nH]cn1)NC(=O)[C@H](CC(C)C)NC(=O)[C@H](Cc1ccccc1)NC(=O)[C@H](CCC(=O)O)NC(=O)[C@H](C)NC(=O)[C@H](CC(C)C)NC(=O)[C@H](CCCNC(=N)N)NC(=O)[C@H](CCC(N)=O)NC(=O)[C@@H](NC(=O)[C@H](C)NC(=O)[C@@H]1CSSC[C@H](NC(=O)[C@H](CCCCN)NC(=O)[C@H](CCC(=O)O)NC(=O)CC[C@H](NC(=O)CCCCCCCCCCCCCCCCCCC(=O)O)C(=O)O)C(=O)N[C@@H](CC(N)=O)C(=O)N[C@@H]([C@@H](C)O)C(=O)N[C@@H](C)C(=O)N[C@@H]([C@@H](C)O)C(=O)N1)[C@@H](C)O)C(=O)N[C@@H](CC(C)C)C(=O)N1CCC[C@H]1C(=O)N1CCC[C@H]1C(=O)N[C@H](C(=O)N[C@@H](CC(N)=O)C(=O)N[C@H](C(=O)NCC(=O)N[C@@H](CO)C(=O)N[C@@H](CC(N)=O)C(=O)N[C@H](C(=O)N[C@@H](Cc1ccc(O)cc1)C(N)=O)[C@@H](C)O)C(C)C)[C@@H](C)O [Example 26, N-alpha-[(S)-4-Carboxy-4-(19-carboxynonadecanoylamino)butyryl]-Glu-[Glu14,His17]-pramlintide] ({C20 diacid-γGlu}-EKCNTATCATQRLAEFLHHSSNNFGPILPPTNVGSNTY-NH2; disulfide 3-8 (inferred); C-terminus assumed)
2 | 9.73 | 9.97 | 9.92 | 9.27 | > 200 µM | 174 µM (≈ 775 µg/mL) | 160 µM (≈ 713 µg/mL) | 160 µM (≈ 713 µg/mL) | > 200 µM | > 200 µM | > 200 µM | > 200 µM | > 200 µM | > 200 µM | CC[C@H](C)[C@H](NC(=O)[C@@H]1CCCN1C(=O)CNC(=O)[C@H](Cc1ccccc1)NC(=O)[C@H](CC(N)=O)NC(=O)[C@H](CC(N)=O)NC(=O)[C@H](CO)NC(=O)[C@H](CO)NC(=O)[C@H](Cc1c[nH]cn1)NC(=O)[C@H](Cc1c[nH]cn1)NC(=O)[C@H](CC(C)C)NC(=O)[C@H](Cc1ccccc1)NC(=O)[C@H](CCC(=O)O)NC(=O)[C@H](C)NC(=O)[C@H](CC(C)C)NC(=O)[C@H](CCCNC(=N)N)NC(=O)[C@H](CCC(N)=O)NC(=O)[C@@H](NC(=O)[C@H](C)NC(=O)[C@@H]1CSSC[C@H](NC(=O)[C@H](CCCCN)NC(=O)CC[C@H](NC(=O)CCCCCCCCCCCCCCCCCCC(=O)O)C(=O)O)C(=O)N[C@@H](CC(N)=O)C(=O)N[C@@H]([C@@H](C)O)C(=O)N[C@@H](C)C(=O)N[C@@H]([C@@H](C)O)C(=O)N1)[C@@H](C)O)C(=O)N[C@@H](CC(C)C)C(=O)N1CCC[C@H]1C(=O)N1CCC[C@H]1C(=O)N[C@H](C(=O)N[C@@H](CC(N)=O)C(=O)N[C@H](C(=O)NCC(=O)N[C@@H](CO)C(=O)N[C@@H](CC(N)=O)C(=O)N[C@H](C(=O)N[C@@H](Cc1ccc(O)cc1)C(N)=O)[C@@H](C)O)C(C)C)[C@@H](C)O [Example 27, N-alpha-[(S)-4-Carboxy-4-(19-carboxynonadecanoylamino)butyryl]-[Glu14,His17]-pramlintide] ({C20 diacid-γGlu}-KCNTATCATQRLAEFLHHSSNNFGPILPPTNVGSNTY-NH2; disulfide 2-7 (inferred))
3 | 9.70 | 9.81 | 9.79 | 8.88 | > 200 µM | 8 µM (≈ 38.1 µg/mL) | – | – | 10 µM (≈ 47.6 µg/mL) | 65 µM (≈ 310 µg/mL) | > 200 µM | > 200 µM | > 200 µM | > 200 µM | CC[C@H](C)[C@H](NC(=O)[C@@H]1CCCN1C(=O)CNC(=O)[C@H](Cc1ccccc1)NC(=O)[C@H](CC(N)=O)NC(=O)[C@H](CC(N)=O)NC(=O)[C@H](CO)NC(=O)[C@H](CO)NC(=O)[C@H](Cc1c[nH]cn1)NC(=O)[C@H](Cc1c[nH]cn1)NC(=O)[C@H](CC(C)C)NC(=O)[C@H](Cc1ccccc1)NC(=O)[C@H](CCC(=O)O)NC(=O)[C@H](C)NC(=O)[C@H](CC(C)C)NC(=O)[C@H](CCCNC(=N)N)NC(=O)[C@H](CCC(N)=O)NC(=O)[C@@H](NC(=O)[C@H](C)NC(=O)[C@@H]1CSSC[C@H](NC(=O)[C@H](Cc2c[nH]cn2)NC(=O)[C@H](Cc2c[nH]cn2)NC(=O)[C@H](Cc2c[nH]cn2)NC(=O)CC[C@H](NC(=O)CCCCCCCCCCCCCCCCCCC(=O)O)C(=O)O)C(=O)N[C@@H](CC(N)=O)C(=O)N[C@@H]([C@@H](C)O)C(=O)N[C@@H](C)C(=O)N[C@@H]([C@@H](C)O)C(=O)N1)[C@@H](C)O)C(=O)N[C@@H](CC(C)C)C(=O)N1CCC[C@H]1C(=O)N1CCC[C@H]1C(=O)N[C@H](C(=O)N[C@@H](CC(N)=O)C(=O)N[C@H](C(=O)NCC(=O)N[C@@H](CO)C(=O)N[C@@H](Cc1c[nH]cn1)C(=O)N[C@H](C(=O)N[C@@H](Cc1ccc(O)cc1)C(N)=O)[C@@H](C)O)C(C)C)[C@@H](C)O [Example 31, N-alpha-[(S)-4-Carboxy-4-(19-carboxynonadecanoylamino)butyryl]-His-His-[His1,Glu14,His17,His35]-pramlintide] ({C20 diacid-γGlu}-HHHCNTATCATQRLAEFLHHSSNNFGPILPPTNVGSHTY-NH2; disulfide 4-9 (inferred); C-terminus assumed)
